In patent US9586994B2, “CD44V6-derived peptides for treating breast cancer” (KARLSRUHER INSTITUT FÜR TECHNOLOGIE, priority 2012, dated 2017):
Entries after “also recorded” stand apart in the source; their conditions may differ. Where two headings read alike, the source gives them in different places. No end group written: not given here.

Experiments:
CD44v6 = assay: HGF-induced activation of Met and ERK in L3.6pl cells (Western blot); type: cell-based, human; conditions: peptide before induction with 10 ng/ml HGF
Description: Serum-starved cells (24 hours) were induced with the growth factor HGF (10 ng/mL) at 37° C. for 5 minutes. Where indicated, the cells were treated with peptides (100 ng/ml) prior to induction at 37° C. for 10 minutes (100 ng/mL CD44v6 peptide or control peptide). Following the induction with HGF, cells were washed with ice-cold phosphate-buffered saline (PBS). To detect activated Met and ERK, cells were lysed in sodium dodecyl sulfate (SDS)—sample buffer containing 100 mM dithiothreitol (DTT), boiled and subjected to western blot analysis using antibodies against phospho-Met and ERK. The loading controls were performed on the same blot after stripping (62.5 mM Tris, pH 6.8, 2% SDS, 0.8% DTT) by probing with the Met respectively Erk antibody. Blots were stained using the enhanced chemiluminescence system (Thermo Fisher Scientific, Schwerte, Germany). Bands in western blot analysis were quantified with the program Image J (National Institutes of Health).
To expand the studies to human pancreatic tumors, the highly metastatic human pancreatic carcinoma cells L3.6pl (Bruns, et al. Neoplasia (1999), 1(1):50-62) were investigated. These cells originate from the […] cells that have been passaged several times in the liver and the pancreas, a step that rendered them more and more metastatic. It was confirmed that Met is dependent on CD44v6 for its activation and signaling in these cells (FIG. 19A). The L3.6pl cells were treated with HGF in the presence or absence of a human v6 peptide of SEQ ID NO: 2 or SEQ ID NO:6 and Met activation and downstream signaling to ERK was measured. Phosphorylation of both Met and ERK was inhibited by the human v6 peptide. Treatment with a corresponding rat v6 peptide (ctrl peptide, SEQ ID NO: 10 or 11) had no influence on receptor activation and signal transduction (FIG. 19A).
The contribution of CD44v6 to Met signaling in the human epithelial pancreatic cancer cells L3.6pl (derived from Colo 357), the cervix carcinoma cells HeLa and the colon cancer cells HT29 were analysed using the CD44v6 peptide (v6 14mer; v6 5mer tested as well, data not shown).

BSp73ASs6 cells = assay: Rat syngeneic model, subcutaneous BSp73ASs6 tumors, treatment from one week (metastasis formation); type: in vivo; conditions: rats, s.c. BSp73ASs6
Description: In the case of the rat syngeneic model, 1×10^6 pancreatic cells (BSp73AS and its transfectants) were subcutaneously injected into the right posterior flank of the animals. Tumors developed for four weeks. During this time period animals injected with BSp73ASs6 cells expressing Met-shRNA or control-shRNA received doxycycline in the drinking water. At the end of the experiment, primary tumors were isolated. Lungs and axillary lymph nodes were analyzed. The tissues were incubated for 24 h in a zinc-fixative (0.5 g calcium acetate, 5.0 g zinc acetate, 5.0 g zinc chloride, in 1 L 0.1 M Tris pH 7.4) and embedded in paraffin for further analysis. In case of peptide or antibody treatment tumors developed for one week before the first treatment. Where indicated, animals received 200 μg of peptide or antibody per injection three times per week for four weeks. Tumor growth was monitored weekly using a caliper Animals were killed at day 28 or 30 after start of the treatment.
For histomorphological analysis paraffin-embedded sections of lungs were stained with hematoxylin and eosin and periodic acid-Schiff (H&E or PAS). Serial sections of the whole tissue blocks were examined by analyzing slices every 20 μm; in each slice, the presence and the extension of the metastatic deposit was assessed, according to the procedure routinely used by pathologists to evaluate the presence of micrometastases.
Rat peptides had the sequences KEKWFENEWQGKNP (SEQ ID NO: 10) and NEWQG (SEQ ID NO: 11). BSp73ASs6 cells were subcutaneously injected into syngeneic rats and rat CD44v6 peptides of SEQ ID NO: 10 or SEQ ID NO: 11 (or mouse control peptides) or the CD44v6 antibody (or IgGs as a control) were injected intra-tumoral or intravenously three times a week. […] This is compatible with the fact that also BSp73AS cells or BSp73ASv1-10Δv6 cells can induce the formation of primary tumors similarly to the v6 transfectants.

L3.6pl cells = assay: Human orthotopic pancreatic cancer model, L3.6pl cells in nude mice, treatment from day 7; type: in vivo, mouse; conditions: nude mice, orthotopic L3.6pl; 20 μg i.p. three times per week; listed as rat-specific peptide
Description: In the case of the human orthotopic model, L3.6pl pancreatic carcinoma cells (passage 24-26) were suspended in Hank's balanced salt solution (Invitrogen, Karlsruhe, Germany) after trypsinization. The cells were injected orthotopically in the pancreas of male nude mice as described (Bruns C J et al. (1999) Neoplasia 1(1):50-62). Two groups of 15 mice each were injected i.p. 7 days later with either the human v6 peptide respectively rat control peptide (20 μg). For all experiments described and depicted herein either the rat 14mer control peptide or the human 14mer peptide were used. All experiments were then repeated with the rat 5mer control peptide or the human 5mer peptide (N-R-W-H-E, SEQ ID NO: 2). […] The injection was repeated three times per week for 21 days. Two days after the last treatment the animals were killed.
7 μm thick paraffin sections were deparaffinized and rehydrated. For P-Met staining antigen unmasking was achieved by boiling the slides in 1 mM EDTA pH 8.0 followed by incubation for 15 minutes at a sub-boiling temperature, for CD31 staining the sections were treated with Proteinase K (8 μg/ml) for […] at 37° C. For immunofluorescence staining of P-Met, unspecific binding was blocked with 5% goat serum (DAKO, Glostrup, Denmark) (diluted in 1×PBS/0.3% Triton X-100) for 60 minutes. In the case of immunohistochemistry, endogenous peroxidases were at first blocked with 3% H2O2 in PBS followed by incubation with biotin blocking system (Dako, Glostrup, Denmark) and then unspecific binding was inhibited by incubation with 5% FCS in PBS was used for blocking. The sections were incubated with the P-Met antibody (D26, dilution 1:50 in 1×PBS/1% BSA/0.3% Triton X-100), Met antibody (C-28, dilution 1:50), GFP antibody (sc-101525, dilution 1:50) or CD31 antibody (5 μg/ml) over night or VFF18 (5 μg/ml) o/n at 4° C. After washing in PBS the sections were incubated with Alexa Fluor R 546 goat anti-rabbit (in case of immunofluorescence P-Met and Met staining, dilution 1:500) or a biotinylated secondary antibody (for immunohistochemical stainings rabbit anti-rat antibody for VFF18 and CD31, goat anti-rabbit for P-Met, cleaved Caspase-3 and cleaved Caspase-8 and rabbit anti-mouse for GFP, dilution 1:500) for 45 minutes. For DAB staining the sections were treated with a streptavidin-peroxidase conjugate (Dako, Glostrup, Denmark) and developed with DAB (3,3′-diaminobenzidine) substrate system (3,3′-diaminobenzidine; Biozol, Eching, Germany) For immunofluorescence DAPI was used for nuclear staining.
To test the effect of the peptide on tumor growth and metastasis formation the L3.6pl cells were orthotopically injected into the pancreas of immunosuppressed mice (NCI-nu). […] The primary tumor expresses a high amount of CD44v6 (FIG. 19B). […] Indeed, human HGF in a concentration of 3375 pg/ml was detected in the supernatant (see Material and Methods) after 5 days of culture (data not shown).

murine 4T1 cells = assay: Syngeneic orthotopic 4T1 mammary carcinoma model in BALB/c mice; type: in vivo, mouse
Description: FIG. 27: Treatment with the v6 14mer reduces growth of the primary tumor and macroscopic metastases formation in the lung. 1×10^6 murine 4T1 cells per mouse were diluted in 50 μl RPMI plus 50 μl Matrigel and injected into the […] mammary fat pad of 10 female BALB/c mice. One week after the injection, the mice were either injected intraperitoneally with 20 μg of the murine v6 14mer dissolved in 100 μl PBS or with 20 μg of control peptide (rat v6 14mer) dissolved in 100 μl PBS. The injection was performed 3 times per week for two weeks. After 2 weeks the mice were sacrificed and the primary tumors and the lungs were extracted. A: Overall reduction of the tumor volume in the v6 peptide treated group B: Immunofluorescent staining for the endothelial marker CD34 to monitor vascularization of the primary tumor. Graphic representation of the reduction of the total vessel area. C: The v6 peptides led to a reduction in macroscopic lung metastasis. The black arrows mark examples for metastases. The scale bar corresponds to a size of 1 cm. Statistical evaluation of the average number of lung metastases. Significance was calculated using Student's t test: p*<0.01; **p<0.005. Each group consisted of 5 animals.
All animals were handled according to German regulations for animal experimentation. The animal experiments were approved by the Regierungspräsidium Karlsruhe (35-9185.81/G-83/04). All mice were obtained from Harlan. 1×10^6 murine 4T1 cells (diluted in either […] of control peptide or […] of CD44v6 peptide (peptides of SEQ ID No.: 6 were tested) in PBS) were orthotopically injected into the mammary fat pad of female BALB/c mice. In succession, 5 of the mice were injected intraperitoneally with a CD44v6-peptide (20 μg per mouse) (peptides of SEQ ID No.: 6 were tested) and 5 of the mice were injected with an unspecific control peptide (20 μg per mouse) three times a week. After four weeks, the mice were sacrificed and the tumors as well as the lung and lymph nodes of the animals were extracted. These organs were then fixed in 4% Formalin, processed and embedded in paraffin. […]

Met = conditions: N and E of the pentapeptide changed to A, Matzke et al., Cancer Res. (2005), cited from earlier work
BSp73ASs6 tumors = conditions: rat
Description: To avoid autofluorescence of fur, rats were shaved around the tumor prior to imaging. Subsequently, animals were anesthetized using 2% isoflurane and gently fixed on the devices' heated plate for the entire time of data acquisition. To reduce fluorescence background, rats were fed with chlorophyll-reduced food (Provimi Kliba AG, Kaiseraugst, Switzerland) for one week prior NIRF imaging. All in vivo analyses were preceded by native scans of animals without any injection of the fluorescent probe. For in vivo analysis, rats were injected with 200 μg DY681-labeled rat v6 11 mer peptide or the human v6 11 mer peptide via the tail vein. Controls were injected with the equal amount of DY681-labeled mouse v6 11mer peptide. […] All peptides were labeled with the fluorescent dye DY681. Data were acquired at the indicated time after injection of the peptides. […]
DY681 fluorescence was measured using excitation at 670 nm in combination with a 700 nm long-pass emission filter. […] Data sets were analyzed with OptiView (ART).
For in vivo experiments, BSp73ASs6 cells were injected subcutaneously into syngeneic rats. […] The accumulation of the fluorescence was measured in the tumor region by Optix MX2 at the indicated time points. […] Then, in vivo binding kinetics of the Dy681-labeled v6 peptides to the subcutaneous tumors were determined. […]

KEKWFENEWQGKNP [SEQ ID NO: 10, rat CD44v6 14mer; control peptide in human models]
HGF-induced phosphorylation/activation of ERK (CD44v6): no influence
HGF-induced phosphorylation/activation of Met (CD44v6): no influence
Metastasis (axillary lymph nodes and lungs) (BSp73ASs6 cells; 200 μg per injection i.t. or i.v., three times a week, four weeks, start after one week): completely inhibited metastasis
Metastasis and micro-metastasis in lung sections (PAS and H&E histology) (BSp73ASs6 cells; 200 μg three times a week): no metastasis nor micro-metastasis could be detected
Outgrowth of primary tumors (BSp73ASs6 cells; treatment for 28 days): not influenced
Metastasis formation (liver) (L3.6pl cells): neither influence on metastasis formation; also recorded: no influence on metastasis formation
Outgrowth of the primary tumor in the pancreas (L3.6pl cells): no influence on metastasis formation or on growth of the primary tumor

v6 14mer: murine v6 14mer per FIG. 27 legend; no sequence printed; b173 and b212 say SEQ ID NO: 6 (KEQWFGNRWHEGYR)
Total number of blood vessels in the primary tumor (anti-CD34 staining) (murine 4T1 cells; BALB/c mice, 4T1, 20 μg i.p. 3 times per week for two weeks): significantly reduced
Size of the primary tumor (murine 4T1 cells; BALB/c mice, 4T1 in mammary fat pad, 20 μg i.p. 3 times per week for two weeks, 5 animals per group): significant decrease of tumor size
Macroscopic lung metastases per animal (murine 4T1 cells; macroscopic analysis of the lungs, 5 animals per group): three animals showed no macroscopic metastases at all, whereas two animals had only one metastase

A-R-W-H-A (ARWHA) [SEQ ID NO: 3]
CD44v6 mediated activation of Met (Met): still active in inhibiting CD44v6 mediated activation of Met
CD44v6 mediated activation of Met (Met; listed as SEQ ID NO:3): capable of abrogating Met activation

WFQNGWQGKNP (also: DY681 fluorescent dye label) [mv6 pep Dy681, reference compound]
Ex vivo fluorescence in excised tumors and lungs (BSp73ASs6 tumors): not in tumors and lungs
